Source: patent US8247211B2, “Glycopeptide antibiotics” (American Cyanamid Company, priority 2001, dated 2012)
In brackets after ≈: the same amount, converted by molar mass.

What was measured:
Assay in all cases: In vitro antibacterial evaluation: minimum inhibitory concentration (MIC), broth dilution method
Type in all cases: cell-based
Streptococcus sp. = conditions: 18 hours at 35° C.
In short: (§1)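 MIC read as lowest drug level preventing visible growth. Organisms at 5×10^5 CFU/mL were exposed to a 64-0.06 μg/mL dilution series in Muller-Hinton II […] following NCCLS broth dilution standard M7-A2.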

Enterococcus sp. = conditions: 18 hours at 35° C.
In short: as §1

Escherichia coli = conditions: 18 hours at 35° C.
In short: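 Following NCCLS approved standard M7-A2, compounds are serially diluted from 64 to 0.06 μg/mL in Muller-Hinton II […] and inoculated at 5×10^5 CFU/mL; the MIC is the minimum concentration at which growth is inhibited.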

Staphylococcus sp. = tested on: Staphylococcus sp.
In short: as §1

[1] = broth dilution, inoculum 5×10^5 CFU/mL

MIC Streptococcus agalactiae (GC 4564) (Streptococcus sp.; Streptococcus agalactiae (GC 4564)): <0.06 µg/mL
MIC Streptococcus pneumoniae (ATCC 6301) (Streptococcus sp.; Streptococcus pneumoniae (ATCC 6301)): 0.12 µg/mL (≈ 0.0843 µM)
MIC Streptococcus pneumoniae (GC 1894) (Streptococcus sp.; Streptococcus pneumoniae (GC 1894)): <0.06 µg/mL
MIC Streptococcus pneumoniae (GC 4565) (Streptococcus sp.; Streptococcus pneumoniae (GC 4565)): <0.06 µg/mL
MIC Streptococcus pyogenes (GC 4563) (Streptococcus sp.; Streptococcus pyogenes (GC 4563)): <0.06 µg/mL
MIC Streptococcus agalactiae (GC 4564) (Streptococcus sp.; [1]): <0.06 µg/mL
MIC Streptococcus pneumoniae (ATCC 6301) (Streptococcus sp.; [1]): 0.12 µg/mL (≈ 0.0843 µM)
MIC Streptococcus pneumoniae (GC 1894) (Streptococcus sp.; [1]): <0.06 µg/mL
MIC Streptococcus pneumoniae (GC 4565) (Streptococcus sp.; [1]): <0.06 µg/mL
MIC Streptococcus pyogenes (GC 4563) (Streptococcus sp.; [1]): <0.06 µg/mL
MIC Enterococcus avium (GC 4558) (Enterococcus sp.; Enterococcus avium (GC 4558)): 2 µg/mL (≈ 1.4 µM)
MIC Enterococcus faecalis (ATCC 29212) (Enterococcus sp.; Enterococcus faecalis (ATCC 29212)): 1 µg/mL (≈ 0.702 µM)
MIC Enterococcus faecalis (GC 2242) (Enterococcus sp.; Enterococcus faecalis (GC 2242)): 1 µg/mL (≈ 0.702 µM)
MIC Enterococcus faecalis (GC 2691) (Enterococcus sp.; Enterococcus faecalis (GC 2691)): 2 µg/mL (≈ 1.4 µM)
MIC Enterococcus faecalis (GC 3059) (Enterococcus sp.; Enterococcus faecalis (GC 3059)): 1 µg/mL (≈ 0.702 µM)
MIC Enterococcus faecalis (GC 4552) (Enterococcus sp.; Enterococcus faecalis (GC 4552)): 1 µg/mL (≈ 0.702 µM)
MIC Enterococcus faecalis (GC 4553) (Enterococcus sp.; Enterococcus faecalis (GC 4553)): 2 µg/mL (≈ 1.4 µM)
MIC Enterococcus faecalis (GC 4554) (Enterococcus sp.; Enterococcus faecalis (GC 4554)): 2 µg/mL (≈ 1.4 µM)
MIC Enterococcus faecalis (GC 6189) (Enterococcus sp.; Enterococcus faecalis (GC 6189)): 0.5 µg/mL (≈ 0.351 µM)
MIC Enterococcus faecium (GC 2243) (Enterococcus sp.; Enterococcus faecium (GC 2243)): 1 µg/mL (≈ 0.702 µM)
MIC Enterococcus faecium (GC 4556) (Enterococcus sp.; Enterococcus faecium (GC 4556)): 1 µg/mL (≈ 0.702 µM)
MIC Enterococcus faecium (GC 4557) (Enterococcus sp.; Enterococcus faecium (GC 4557)): 2 µg/mL (≈ 1.4 µM)
MIC Enterococcus avium (GC 4558) (Enterococcus sp.; [1]): 2 µg/mL (≈ 1.4 µM)
MIC Enterococcus faecalis (ATCC 29212) (Enterococcus sp.; [1]): 1 µg/mL (≈ 0.702 µM)
MIC Enterococcus faecalis (GC 2242) (Enterococcus sp.; [1]): 1 µg/mL (≈ 0.702 µM)
MIC Enterococcus faecalis (GC 2691) (Enterococcus sp.; [1]): 2 µg/mL (≈ 1.4 µM)
MIC Enterococcus faecalis (GC 3059) (Enterococcus sp.; [1]): 1 µg/mL (≈ 0.702 µM)
MIC Enterococcus faecalis (GC 4552) (Enterococcus sp.; [1]): 1 µg/mL (≈ 0.702 µM)
MIC Enterococcus faecalis (GC 4553) (Enterococcus sp.; [1]): 2 µg/mL (≈ 1.4 µM)
MIC Enterococcus faecalis (GC 4554) (Enterococcus sp.; [1]): 2 µg/mL (≈ 1.4 µM)
MIC Enterococcus faecalis (GC 6189) (Enterococcus sp.; [1]): 0.5 µg/mL (≈ 0.351 µM)
MIC Enterococcus faecium (GC 2243) (Enterococcus sp.; [1]): 1 µg/mL (≈ 0.702 µM)
MIC Enterococcus faecium (GC 4556) (Enterococcus sp.; [1]): 1 µg/mL (≈ 0.702 µM)
MIC Enterococcus faecium (GC 4557) (Enterococcus sp.; [1]): 2 µg/mL (≈ 1.4 µM)
MIC Escherichia coli (GC 4559) (Escherichia coli; Escherichia coli (GC 4559)): 32 µg/mL (≈ 22.5 µM)
MIC Escherichia coli (GC 4560) (Escherichia coli; Escherichia coli (GC 4560)): 2 µg/mL (≈ 1.4 µM)
MIC Staphylococcus aureus (ATCC 29213) (Staphylococcus sp.; strain ATCC 29213): 0.5 µg/mL (≈ 0.351 µM)
MIC Staphylococcus aureus (GC 1131) (Staphylococcus sp.; strain GC 1131): 1 µg/mL (≈ 0.702 µM)
MIC Staphylococcus aureus (GC 3051) (Staphylococcus sp.; strain GC 3051): 1 µg/mL (≈ 0.702 µM)
MIC Staphylococcus aureus (GC 3053) (Staphylococcus sp.; strain GC 3053): 0.5 µg/mL (≈ 0.351 µM)
MIC Staphylococcus aureus (GC 4541) (Staphylococcus sp.; strain GC 4541): 0.5 µg/mL (≈ 0.351 µM)
MIC Staphylococcus aureus (GC 4542) (Staphylococcus sp.; strain GC 4542): 0.25 µg/mL (≈ 0.176 µM)
MIC Staphylococcus aureus-SMITH (GC 4543) (Staphylococcus sp.; strain GC 4543): 0.5 µg/mL (≈ 0.351 µM)
MIC Staphylococcus aureus (GC 4544) (Staphylococcus sp.; strain GC 4544): 1 µg/mL (≈ 0.702 µM)
MIC Staphylococcus aureus (GC 4545) (Staphylococcus sp.; strain GC 4545): 0.5 µg/mL (≈ 0.351 µM)
MIC Coagulase Negative Staphylococcus (GC 4547) (Staphylococcus sp.; strain GC 4547): 1 µg/mL (≈ 0.702 µM)
MIC Coagulase Negative Staphylococcus (GC 4548) (Staphylococcus sp.; strain GC 4548): 0.25 µg/mL (≈ 0.176 µM)
MIC Coagulase Negative Staphylococcus (GC 4549) (Staphylococcus sp.; strain GC 4549): 0.25 µg/mL (≈ 0.176 µM)
MIC Coagulase Negative Staphylococcus (GC 4551) (Staphylococcus sp.; strain GC 4551): 0.5 µg/mL (≈ 0.351 µM)
MIC Coagulase Negative Staphylococcus (GC 6257) (Staphylococcus sp.; strain GC 6257): 0.25 µg/mL (≈ 0.176 µM)
SMILES: CC(c1ccc(Cl)cc1)C1NC(=O)CNC(=O)C(CO)NC(=O)C(C(O)C2CNC(=N)N2C2OC(CO)C(O)C(O)C2O)NC(=O)C(C(O)C2CNC(=N)N2)NC(=O)C(Cc2ccc(OC3OC(CO)C(OC4OC5COC(C6CCCCC6)OC5C(O)C4O)C(O)C3O)cc2)NC1=O (stereo not drawn) [Example 193]
MIC Staphylococcus haemolyticus (GC 4546) (Staphylococcus sp.; strain GC 4546): 0.5 µg/mL (≈ 0.351 µM)
